Legend:
[1] = biological target: T1, TDO (Homo sapiens (Human), UniProt P48775); assay: A172 kynurenine cell-based assay; settings: A172 human glioblastoma cells, 500 μM L-tryptophan, 48 hours; for IC50: read-out: A172 Kynurenine cell based assay, pIC50 (converted)
Method: (§1) Exemplary compounds of the invention were prepared, and tested to determine their effect as TDO and/or IDO inhibitors. Two different assays were employed: 1. a cell-based assay for detecting the effect of test compounds on kynurenine production in two different cancer cell types. This assay utilised cancer cells which expressed either TDO or IDO and as such was used as a means of testing compound activity at these two enzymes in a cell-based context. 2. a TDO and IDO biochemical coupled assay which utilised recombinantly produced and purified TDO and IDO enzymes in combination with the enzyme formamidase. This coupled enzyme system allowed conversion of N-formylkynurenine produced by TDO or IDO activity to kynurenine which was then quantified by fluorescence following addition of Erhlich's Reagent The protocols for these are set out below.
(§2) Cell Based Assay for Detection of Kynurenine Produced by TDO and/or IDO
(§3) A172 (human glioblastoma) and SKOV3 (human ovarian adenocarcinoma) cells were seeded in a 96 well plate at 30,000 or 40,000 cells per well respectively in phenol red-free RPMI supplemented with 10% FCS, 2 mM L-glutamine and 500 μM L-tryptophan. IDO expression was induced in the SKOV3 cells by the addition of 500 ng/ml IFN-γ. Cells were incubated at 37° C. with or without the addition of test compound. After 48 hours, the cells were removed by centrifugation and Erhlich's reagent was added to the supernatant. The Erhlich's reagent was incubated for 5 minutes before the absorbance was read at 490 nm.

[2] = biological target: T2, IDO (Homo sapiens (Human), UniProt P14902); assay: SKOV3 kynurenine cell-based assay (IDO induced by IFN-γ); settings: SKOV3 human ovarian adenocarcinoma cells, 500 ng/ml IFN-γ, 500 μM L-tryptophan, 48 hours; for IC50: read-out: SKOV3 Kynurenine cell based assay, pIC50 (converted)
Method: as §1, §2, §3

[3] = biological target: T2, IDO; assay: hIDO biochemical coupled assay; settings: 45 μM L-tryptophan, 17 minutes at room temperature; for IC50: read-out: hIDO biochemical assay, pIC50 (converted)
Method: as §1
(§4) TDO and IDO Biochemical Coupled Assay
(§5) Recombinant human IDO or TDO was incubated in 50 mM KPO4 (pH 7.0), 0.5 mM EGTA, 0.5 mM EDTA, 0.05% Triton™ X100, 20 mM ascorbate, 10 μM methylene blue, 500 U/ml catalase, 50 μg/ml KynB (kynurenine formamidase). TDO assays were carried out in the presence of 330 μM L-tryptophan, while IDO assays had the addition of 45 μM L-tryptophan. After incubation for 17 minutes at room temperature the reactions were stopped by the addition of Erhlich's reagent and incubated at room temperature for 5 minutes before the fluorescence was read (Ex 475, Em530).

[4] = biological target: T1, TDO; assay: hTDO biochemical coupled assay; settings: 330 μM L-tryptophan, 17 minutes at room temperature
Method: as §1, §4, §5

T2 sequence (P14902 whole entry): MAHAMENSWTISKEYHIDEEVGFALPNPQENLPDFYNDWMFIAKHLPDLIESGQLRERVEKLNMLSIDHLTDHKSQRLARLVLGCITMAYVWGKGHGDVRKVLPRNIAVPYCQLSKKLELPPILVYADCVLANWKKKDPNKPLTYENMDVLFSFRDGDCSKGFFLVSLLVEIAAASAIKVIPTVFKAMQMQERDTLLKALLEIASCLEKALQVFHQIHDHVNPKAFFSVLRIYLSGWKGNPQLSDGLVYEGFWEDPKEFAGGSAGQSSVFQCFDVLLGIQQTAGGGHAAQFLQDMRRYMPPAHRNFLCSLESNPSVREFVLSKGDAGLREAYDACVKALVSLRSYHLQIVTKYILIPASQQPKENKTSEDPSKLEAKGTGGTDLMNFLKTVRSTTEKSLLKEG
T1 sequence (P48775 whole entry): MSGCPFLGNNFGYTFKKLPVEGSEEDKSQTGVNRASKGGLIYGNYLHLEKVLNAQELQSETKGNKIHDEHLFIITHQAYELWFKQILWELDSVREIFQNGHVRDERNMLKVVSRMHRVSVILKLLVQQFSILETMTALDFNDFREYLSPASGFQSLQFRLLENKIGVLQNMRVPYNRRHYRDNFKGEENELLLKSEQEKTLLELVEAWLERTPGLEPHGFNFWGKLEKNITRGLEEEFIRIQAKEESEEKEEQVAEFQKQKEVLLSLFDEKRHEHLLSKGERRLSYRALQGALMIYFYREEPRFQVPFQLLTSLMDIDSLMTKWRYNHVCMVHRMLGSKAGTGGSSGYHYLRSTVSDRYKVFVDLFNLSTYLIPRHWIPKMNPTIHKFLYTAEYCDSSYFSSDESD

| Compound | A172 Kynurenine cell based assay, pIC50 [1] | SKOV3 Kynurenine cell based assay, pIC50 [2] | hIDO biochemical assay, pIC50 [3] | hTDO biochemical assay, pIC50 [4] | IC50 [1] [µM] | IC50 [2] [µM] | IC50 [3] [µM] | IC50 ([4]; read-out: hTDO biochemical assay, pIC50 (converted)) [µM] |
| --- | --- | --- | --- | --- | --- | --- | --- | --- |
| CC1(C)CN(c2cc(Cl)cn3cncc23)CCN1S(C)(=O)=O [Compound 1016] | +++ (+++ = pIC50 ≥5.50) | ++ (++ = pIC50 4.50-5.49) | – | – | – | – | – | – |
| CC1(C)CN(c2cc(C(F)(F)F)cc3cncn23)CCN1S(C)(=O)=O [Compound 1026] | +++ (+++ = pIC50 ≥5.50) | +++ (+++ = pIC50 ≥5.50) | – | – | – | – | – | – |
| CS(=O)(=O)Nc1ccc(C2CCN(c3cc(C(F)(F)F)cc4cncn34)CC2)cc1 [Compound 1023] | ++ (++ = pIC50 4.50-5.49) | +++ (+++ = pIC50 ≥5.50) | – | – | – | – | – | – |
| CC(=O)N1CCN(c2cc(C(F)(F)F)cn3cncc23)CC1 [Compound 1002] | ++ (++ = pIC50 4.50-5.49) | + (+ = pIC50 4.00-4.49) | +/− (+/− = pIC50 <4.00) | – | – | – | – | – |
| CN1C(=O)N(C2CCN(c3cc(C(F)(F)F)cc4cncn34)CC2)C(=O)C1(C)C [Compound 1034] | ++ (++ = pIC50 4.50-5.49) | ++ (++ = pIC50 4.50-5.49) | ++ (++ = pIC50 4.50-5.49) | ++ (++ = pIC50 4.50-5.49) | – | – | – | – |
| CS(=O)(=O)c1ccc(-c2cc(C(F)(F)F)cn3cncc23)cc1 [Compound 1007] | +++ (+++ = pIC50 ≥5.50) | + (+ = pIC50 4.00-4.49) | + (+ = pIC50 4.00-4.49) | – | – | – | – | – |
| CS(=O)(=O)c1ccc(-c2cc(Cl)cc3cncn23)cc1 [Compound 1012] | ++ (++ = pIC50 4.50-5.49) | + (+ = pIC50 4.00-4.49) | ++ (++ = pIC50 4.50-5.49) | – | – | – | – | – |
| CC(=O)Nc1ccc(C2CCN(c3cc(C(F)(F)F)cc4cncn34)CC2)cc1 [Compound 1024] | ++ (++ = pIC50 4.50-5.49) | +++ (+++ = pIC50 ≥5.50) | – | – | – | – | – | – |
| CNC(=O)c1ccc(C2CCN(c3cc(C(F)(F)F)cc4cncn34)CC2)cc1 [Compound 1025] | ++ (++ = pIC50 4.50-5.49) | +++ (+++ = pIC50 ≥5.50) | – | – | – | – | – | – |
| CS(=O)(=O)N1CCC(c2cc(C(F)(F)F)cc3cncn23)CC1 [Compound 1017] | ++ (++ = pIC50 4.50-5.49) | +/− (+/− = pIC50 <4.00) | + (+ = pIC50 4.00-4.49) | + (+ = pIC50 4.00-4.49) | – | – | – | – |
| CS(=O)(=O)N1CCN(c2cc(C(F)(F)F)cc3cncn23)CC1 [Compound 1019] | ++ (++ = pIC50 4.50-5.49) | + (+ = pIC50 4.00-4.49) | ++ (++ = pIC50 4.50-5.49) | ++ (++ = pIC50 4.50-5.49) | – | – | – | – |
| CC(=O)N1CCN(c2cc(Cl)cc3cncn23)CC1(C)C [Compound 1031] | +++ (+++ = pIC50 ≥5.50) | +++ (+++ = pIC50 ≥5.50) | – | – | – | – | – | – |
| OC1(c2cc(C(F)(F)F)cn3cncc23)CCCCC1 [Compound 1028] | +++ (+++ = pIC50 ≥5.50) | ++ (++ = pIC50 4.50-5.49) | ++ (++ = pIC50 4.50-5.49) | – | – | – | – | – |
| CS(=O)(=O)N1CCC(c2cc(C(F)(F)F)cn3cncc23)CC1 [Compound 1005, 8-(1-(methylsulfonyl)piperidin-4-yl)-6-(trifluoromethyl)imidazo[1,5-a]pyridine] | – | – | – | – | 3.24 to 31.6 | 32.4 to 100 | 3.24 to 31.6 | – |
| CC(=O)N1CCC(c2cc(C(F)(F)F)cn3cncc23)CC1 [Compound 1004] | + (+ = pIC50 4.00-4.49) | +/− (+/− = pIC50 <4.00) | + (+ = pIC50 4.00-4.49) | – | – | – | – | – |
| OCCc1cc(C(F)(F)F)cn2cncc12 [Compound 1008] | +/− (+/− = pIC50 <4.00) | + (+ = pIC50 4.00-4.49) | +/− (+/− = pIC50 <4.00) | +/− (+/− = pIC50 <4.00) | – | – | – | – |

| Compound | A172 Kynurenine cell based assay, pIC50 [1] | SKOV3 Kynurenine cell based assay, pIC50 [2] | hIDO biochemical assay, pIC50 [3] | hTDO biochemical assay, pIC50 [4] | IC50 [1] [µM] | IC50 [2] [µM] | IC50 [3] [µM] | IC50 ([4]; read-out: hTDO biochemical assay, pIC50 (converted)) [µM] |
| --- | --- | --- | --- | --- | --- | --- | --- | --- |
| CC1(C)CN(c2cc(Br)cn3cncc23)CCN1S(C)(=O)=O [Compound 1022] | +++ (+++ = pIC50 ≥5.50) | +++ (+++ = pIC50 ≥5.50) | – | – | – | – | – | – |
| CS(=O)(=O)N1CCC(Nc2cc(C(F)(F)F)cn3cncc23)CC1 [Compound 1009] | +/− (+/− = pIC50 <4.00) | ++ (++ = pIC50 4.50-5.49) | +/− (+/− = pIC50 <4.00) | – | – | – | – | – |
| CS(=O)(=O)N1CCN(c2cc(Cl)cc3cncn23)CC1 [Compound 1013] | + (+ = pIC50 4.00-4.49) | + (+ = pIC50 4.00-4.49) | ++ (++ = pIC50 4.50-5.49) | ++ (++ = pIC50 4.50-5.49) | – | – | – | – |
| CS(=O)(=O)N1CCC(Nc2cc(Cl)cc3cncn23)CC1 [Compound 1030] | ++ (++ = pIC50 4.50-5.49) | ++ (++ = pIC50 4.50-5.49) | – | – | – | – | – | – |
| CC1(C)CN(c2cc(Cl)cc3cncn23)CCN1S(C)(=O)=O [Compound 1032] | ++ (++ = pIC50 4.50-5.49) | +++ (+++ = pIC50 ≥5.50) | – | – | – | – | – | – |
| CS(=O)(=O)N1CCN(c2cc(Cl)cn3cncc23)CC1 [Compound 1006] | ++ (++ = pIC50 4.50-5.49) | + (+ = pIC50 4.00-4.49) | ++ (++ = pIC50 4.50-5.49) | – | – | – | – | – |
| CS(=O)(=O)c1ccc(-c2cc(C(F)(F)F)cc3cncn23)cc1 [Compound 1015, 5-(4-(methylsulfonyl)phenyl)-7-(trifluoromethyl)imidazo[1,5-a]pyridine] | – | – | – | – | 3.24 to 31.6 | 32.4 to 100 | 3.24 to 31.6 | 32.4 to 100 |
| CC(=O)N1CCN(c2cc(Cl)cn3cncc23)CC1(C)C [Compound 1033] | +++ (+++ = pIC50 ≥5.50) | ++ (++ = pIC50 4.50-5.49) | – | – | – | – | – | – |
| O=C(Nc1cccn2cncc12)c1ccccc1 [Compound 1001] | +/− (+/− = pIC50 <4.00) | + (+ = pIC50 4.00-4.49) | +/− (+/− = pIC50 <4.00) | +/− (+/− = pIC50 <4.00) | – | – | – | – |
| CC(=O)N1CCN(c2cc(C(F)(F)F)cn3cncc23)CC1(C)C [Compound 1029] | +++ (+++ = pIC50 ≥5.50) | ++ (++ = pIC50 4.50-5.49) | – | – | – | – | – | – |
| CS(=O)(=O)N1CCN(c2cc(C(F)(F)F)cn3cncc23)CC1 [Compound 1003] | ++ (++ = pIC50 4.50-5.49) | + (+ = pIC50 4.00-4.49) | +/− (+/− = pIC50 <4.00) | – | – | – | – | – |
| CC1(C)CN(c2cc(C(F)(F)F)cn3cncc23)CCN1S(C)(=O)=O [Compound 1014, 8-(3,3-dimethyl-4-(methylsulfonyl)piperazin-1-yl)-6-(trifluoromethyl)imidazo[1,5-a]pyridine] | – | – | – | – | ≤ 3.16 | ≤ 3.16 | – | – |
| CS(=O)(=O)NC1CCN(c2cc(C(F)(F)F)cc3cncn23)CC1 [Compound 1027] | ++ (++ = pIC50 4.50-5.49) | ++ (++ = pIC50 4.50-5.49) | ++ (++ = pIC50 4.50-5.49) | – | – | – | – | – |
| CS(=O)(=O)c1ccc(-c2cc(Cl)cn3cncc23)cc1 [Compound 1010, 6-chloro-8-(4-(methylsulfonyl)phenyl)imidazo[1,5-a]pyridine] | – | – | – | – | ≤ 3.16 | 32.4 to 100 | 3.24 to 31.6 | – |
| O=C(O)N1CCC(c2cc(C(F)(F)F)cc3cncn23)CC1 [Compound 1020] | + (+ = pIC50 4.00-4.49) | +/− (+/− = pIC50 <4.00) | + (+ = pIC50 4.00-4.49) | ++ (++ = pIC50 4.50-5.49) | – | – | – | – |

— patent US10501458B2, “Substituted bicyclic fused ring compounds as indoleamine-2,3-dioxygenase inhibitors” (Merck Sharp & Dohme Corp., priority 2015, dated 2019)
